{
  "source": "patent US11299453B2",
  "about": "(Universität zu Köln, priority 2017, dated 2022)",
  "key": {"teratoma formation": {"system": "teratoma formation", "conditions": "after transplanting 1 million cells into immunodeficient mice; cited from earlier work"}, "[1]": {"system": "human pluripotent stem cells", "conditions": "exposure for 48 hours; cited from earlier work"}, "[2]": {"system": "murine αPIG-AT25 iPSCs, αPIG44-D3 ESCs and R1 ESCs", "assay": "Cell viability (PrestoBlue), results pooled over murine PSC lines", "format": "cell-based", "conditions": "40 μM, 72 h", "text": "(§1) The transgenic murine induced pluripotent stem cell (miPSC) line αPIG-AT25 was generated from the miPSC line TiB7.4 as described in Fatima A et al., Stem Cell Res. 2016 Sep.; 17(2):266-272. The murine embryonic stem cell (ESC) line αPIG44-D3 was equally derived from D3 ESC line. Both transgenic mPSC lines express the IRES-linked genes encoding puromycin N-acetyl-aminotransferase (PAC) and enhanced green fluorescent protein (eGFP) which are under the control of cardiac alpha myosin heavy chain (α-MHC) promoter. They were cultured on mitomycin-inactivated mouse embryonic fibroblasts (MEF) in maintenance medium composed of Dulbecco's minimal essential medium (DMEM) with GlutaMAX (Life Technologies, Carlsbad, USA) supplemented with 15% fetal bovine serum (FBS, Sigma-Aldrich, St. Louis, USA), 1× non-essential amino acids (NEEA, Life Technologies), 50 μM β-mercaptoethanol (β-ME, Life Technologies) and 1000 U/ml of murine leukemia inhibitory factor (mLIF, ORF Genetics, Kopavogur, Iceland). Cell passaging was performed every 2-3 days by dissociating the cells with 0.05% trypsin-EDTA (Life Technologies) and seeding 1-2×10^4 cells/cm^2. The wild type mESC line R1 was cultured on cell culture plates coated with 0.1% gelatin (Sigma-Aldrich) and maintained like the transgenic mPSCs.\n(§2) Serial dilutions of DMSO stock solutions of PluriSIn #1 (Sigma-Aldrich, catalog number SML0682) or one of small molecules SM1-SM10, were prepared from 20 mM stock solutions with cell culture medium. Murine PSCs were dissociated with 0.05% trypsin-EDTA, seeded on 0.1% gelatin-coated 96-well plates with a density of 5000 cells/well and cultured in maintenance medium supplemented with 1000 U/ml of mLIF. After 1 day, cells were incubated with 40 μM PluriSIn #1 and derivatives for 72 h or with 0.01-25 μM SMs for 48 h, respectively. For treatment of corresponding PSC-derived CMs with SMs, puromycin-selected miPSC-CMs from day 14 of differentiation were dissociated with 0.25% trypsin-EDTA as described above and plated on 96-well plates (5×10^4 cells/well) which were pre-coated with 5 μg/ml fibronectin (PromoCell, Heidelberg, Germany). After culturing miPSC-CMs with 8 μg/ml puromycin for 2 more days, they were incubated in differentiation medium supplemented with 0.1-100 μM of SMs for 48-72 h. Following small molecule treatment, cell viability was determined with PrestoBlue cell viability reagent (Life Technologies). To this end, cells were washed with PBS (with calcium and magnesium, Life Technologies) and incubated with PrestoBlue reagent diluted in cell culture medium for 40 min at 37° C.\n(§3) Fluorescence intensities correlating with the number of viable cells in the wells were measured in black flat-bottom 96-well plates (Greiner Bio-One, Kremsmünster, Austria) with a GeniosPro microplate reader (Tecan, Männedorf, Schweiz).\nTo confirm the cytotoxicity of the compounds to PSCs, toxicity test were also run with murine ESC lines αPIG44-D3 and R1, and for comparison with αPIG-AT25 murine iPSC line. The cells were incubated for 48 h with compounds SM1, SM2, SM4, SM5, SM6 and SM8 in concentrations of 0.01 μM and 10 μM. Cell culture was performed as described above. Experiments were run in quadruplicate and negative and positive control cells were treated with 0.05% DMSO or 8 μg/ml puromycin, respectively. Cell viability was determined using PrestoBlue cell viability reagent.\nMurine αPIG-AT25 iPSCs, αPIG44-D3 ESCs and R1 ESCs were incubated with 40 μM PluriSIn #1 (Sigma-Aldrich, catalog number SML0682) for 72 h. Cell culture was performed as described above for determination of the compounds. Experiments were run in quadruplicate and negative and positive control cells were treated with 0.08% DMSO or 8 μg/ml puromycin, respectively. The cell viability was determined using PrestoBlue cell viability reagent. […]"}, "murine αPIG-AT25 iPSCs": {"system": "murine αPIG-AT25 iPSCs", "assay": "Cell viability (PrestoBlue) of murine iPSCs after compound treatment", "format": "cell-based", "conditions": "48 h; for toxicity to miPSCs (in words): 0.1-25 μM; for concentration dependence of effect on miPSC viability: 0.1, 1, 10 and 25 μM", "text": "as §1, §2, §3\nIC50 values were determined by regression analysis of dose-response curves upon logarithmic transformation. Microscopic images of PSCs were taken with a Zeiss Axiovert 100 inverted microscope and GFP images of CMs were captured with a Zeiss Axiovert 200M fluorescence microscope (both Carl Zeiss, Oberkochen, Germany) and analyzed with Zeiss Axiovision 4.5 software (Carl Zeiss).\nThe cytotoxicity of the compounds according to formulas SM1 to SM10 to pluripotent stem cells (PSCs) was determined in a population of murine αPIG-AT25 iPSCs, which were incubated for 48 h with compounds SM1 to SM10 in concentrations of 0.1 μM, 1 μM, 10 μM and 25 μM. Cell culture was performed as described above. Experiments were run in quadruplicate and negative and positive control cells were treated with 0.125% DMSO or 8 μg/ml puromycin, respectively. The cell viability was determined using PrestoBlue cell viability reagent. […]"}, "[3]": {"system": "human neural progenitor cells derived from the human iPSC line Royan-hiPSC4", "assay": "Cell viability (PrestoBlue) of human iPSC-derived neural progenitor cells", "format": "cell-based", "conditions": "1 μM, 72 h of treatment", "procedure": "To confirm the cytotoxicity of the compounds to PSCs, toxicity tests were also run with human neural progenitor cells (passage 20) derived from the human iPSC line Royan-hiPSC4 (RSCB0082). The cells were incubated for 24 h, 48 h and 72 h with compounds SM20, SM21, SM22 and SM23 in concentrations of 1 μM, 3 μM, 10 μM and 25 μM. Cell culture was performed as described above except that Koch medium was used. Experiments were run in quadruplicate and negative and positive control cells were treated with 0.001% DMSO or 0.1 μM, 1 μM, 10 μM and 25 μM of SM6, respectively. Cell viability was determined using PrestoBlue cell viability reagent."}, "[4]": {"system": "murine αPIG-AT25 iPSC-CM monolayers"}},
  "data": [
    {"smiles": "O=C(NNc1ccccc1)c1ccncc1", "note": "[PluriSIn #1]", "values": [
      {"measurement": "teratoma formation", "setting": "teratoma formation", "value": "prevented teratoma formation"},
      {"measurement": "removal of human pluripotent stem cells from the culture", "setting": "[1]", "value": "successfully removed human pluripotent stem cells from the culture"},
      {"measurement": "reduction of cell viability, on average over the three murine PSC lines", "setting": "[2]", "value": "51.32±10.86", "unit": "%"}
    ]},
    {"smiles": "CN(Cc1cccc(-c2ccccc2)c1O)[C@@H]1CCCC[C@H]1N(C)Cc1cccc(-c2ccccc2)c1O", "note": "[SM3, (1R,2R)-N,N′-dimethyl-N,N′-di[(2-hydroxy-3-phenyl)-benzyl]-1,2-diaminocyclohexane]", "values": [
      {"measurement": "toxicity to miPSCs (in words)", "setting": "murine αPIG-AT25 iPSCs", "value": "did not"}
    ]},
    {"smiles": "CC(C)(C)c1cc(C(=O)N[C@@H]2CCCC[C@H]2NC(=O)c2cc(C(C)(C)C)cc(C(C)(C)C)c2O)c(O)c(C(C)(C)C)c1", "note": "[SM7, (1R,2R)-N,N′-di[(2-hydroxy-3,5-di-tert.- butyl)benzoyl]-1,2-diaminocyclohexane]", "values": [
      {"measurement": "toxicity to miPSCs (in words)", "setting": "murine αPIG-AT25 iPSCs", "value": "did not"}
    ]},
    {"smiles": "CN(Cc1cc(C(C)(C)C)cc(C(C)(C)C)c1O)[C@@H]1CCCC[C@H]1N(C)Cc1cc(C(C)(C)C)cc(C(C)(C)C)c1O", "note": "[SM9, (1R,2R)-N,N′-dimethyl-N,N′-di[(2-hydroxy-3,5-di-tert.- butyl)benzyl]-1,2-diaminocyclohexane]", "values": [
      {"measurement": "concentration dependence of effect on miPSC viability", "setting": "murine αPIG-AT25 iPSCs", "value": "did not show a concentration dependent effect"},
      {"measurement": "toxicity to miPSCs (in words)", "setting": "murine αPIG-AT25 iPSCs", "value": "did not"}
    ]},
    {"smiles": "CC(C)(C)c1cc(CN[C@@H]2CCCC[C@H]2NCc2cc(C(C)(C)C)cc(C(C)(C)C)c2O)c(O)c(C(C)(C)C)c1", "note": "[SM10, (1R,2R)-N,N′-di[(2-hydroxy-3,5-di-tert.- butyl)benzyl]-1,2-diaminocyclohexane]", "values": [
      {"measurement": "concentration dependence of effect on miPSC viability", "setting": "murine αPIG-AT25 iPSCs", "value": "did not show a concentration dependent effect"},
      {"measurement": "toxicity to miPSCs (in words)", "setting": "murine αPIG-AT25 iPSCs", "value": "did not"}
    ]},
    {"smiles": "Oc1c(CN[C@@H]2CCCC[C@H]2NCc2cccc(-c3c(F)c(F)c(F)c(F)c3F)c2O)cccc1-c1c(F)c(F)c(F)c(F)c1F", "note": "[SM20, (1R,2R)-N,N′-di[(2-hydroxy-3-penta-fluorophenyl)-benzyl]-1,2-diaminocyclohexane]", "values": [
      {"measurement": "NPCs killed", "setting": "[3]", "value": "eliminated all cells"},
      {"measurement": "toxicity to miPSCs (in words)", "setting": "murine αPIG-AT25 iPSCs", "value": "good toxicity"}
    ]},
    {"smiles": "c1ccc2[nH]c(CN[C@@H]3CCCC[C@H]3NCc3cc4ccccc4[nH]3)cc2c1", "note": "[SM21, (1R,2R)-N,N′-di[(2-indolyl)methyl]-1,2-diaminocyclohexane]", "values": [
      {"measurement": "toxicity to miPSCs (in words)", "setting": "murine αPIG-AT25 iPSCs", "value": "good toxicity"}
    ]},
    {"smiles": "Oc1c(CN[C@@H]2CCCC[C@H]2NCc2cccc(-c3cccs3)c2O)cccc1-c1cccs1", "note": "[SM23, (1R,2R)-N,N′-di([2-hydroxy-3-(2-thienyl)]-benzyl)-1,2-diaminocyclohexane]", "values": [
      {"measurement": "NPCs killed", "setting": "[3]", "value": "eliminated all cells"},
      {"measurement": "toxicity to miPSCs (in words)", "setting": "murine αPIG-AT25 iPSCs", "value": "good toxicity"}
    ]},
    {"smiles": "N.N.[Cl][Pt][Cl]", "note": "[cisplatin]", "values": [
      {"measurement": "apoptotic CMs (cleaved caspase-3 staining)", "setting": "[4]", "value": "presence of apoptotic CMs"},
      {"measurement": "sarcomere structure (α-actinin staining)", "setting": "[4]", "value": "degradation of the sarcomere structure"}
    ]}
  ]
}
